Assay results reported in PubChem BioAssay (NCI).
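Cells were grown in 96-well plates and exposed to each compound for 48 hours at five concentrations; endpoints were interpolated linearly between bracketing concentrations, or set to the highest concentration if not reached. GI50 marks 50% less growth. TGI is the concentration that stops growth completely.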

How the values were obtained:
Test in all cases: DTP human tumour cell line panel, 48 h
HS 578T breast = tested on: HS 578T breast
MCF7 breast = tested on: MCF7 breast
M14 melanoma = tested on: M14 melanoma
A498 renal = tested on: A498 renal
IGROV1 ovarian = tested on: IGROV1 ovarian
HCT-116 colon = tested on: HCT-116 colon
MDA-MB-231 breast = tested on: MDA-MB-231 breast
HT29 colon = tested on: HT29 colon
CCRF-CEM leukemia = tested on: CCRF-CEM leukemia
SW-620 colon = tested on: SW-620 colon
TK-10 renal = tested on: TK-10 renal
HL-60(TB) leukemia = tested on: HL-60(TB) leukemia
LOX IMVI melanoma = tested on: LOX IMVI melanoma
NCI-H226 lung = tested on: NCI-H226 lung
ACHN renal = tested on: ACHN renal
SN12C renal = tested on: SN12C renal
SF-295 CNS = tested on: SF-295 CNS
RXF 393 renal = tested on: RXF 393 renal
SK-MEL-2 melanoma = tested on: SK-MEL-2 melanoma
786-0 renal = tested on: 786-0 renal
EKVX NSCLC = tested on: EKVX NSCLC
SR leukemia = tested on: SR leukemia
BT-549 breast = tested on: BT-549 breast
SK-MEL-28 melanoma = tested on: SK-MEL-28 melanoma
SNB-19 CNS = tested on: SNB-19 CNS
CAKI-1 renal = tested on: CAKI-1 renal
NCI-H460 lung = tested on: NCI-H460 lung
NCI-H522 lung = tested on: NCI-H522 lung
SF-268 CNS = tested on: SF-268 CNS
COLO 205 colon = tested on: COLO 205 colon
OVCAR-8 ovarian = tested on: OVCAR-8 ovarian
UO-31 renal = tested on: UO-31 renal
PC-3 prostate = tested on: PC-3 prostate
K-562 leukemia = tested on: K-562 leukemia
OVCAR-4 ovarian = tested on: OVCAR-4 ovarian
SNB-75 CNS = tested on: SNB-75 CNS
MOLT-4 leukemia = tested on: MOLT-4 leukemia
NCI/ADR-RES ovarian = tested on: NCI/ADR-RES ovarian
HOP-92 NSCLC = tested on: HOP-92 NSCLC
SK-MEL-5 melanoma = tested on: SK-MEL-5 melanoma
KM12 colon = tested on: KM12 colon
OVCAR-3 ovarian = tested on: OVCAR-3 ovarian
MALME-3M melanoma = tested on: MALME-3M melanoma
UACC-62 melanoma = tested on: UACC-62 melanoma
UACC-257 melanoma = tested on: UACC-257 melanoma
NCI-H23 lung = tested on: NCI-H23 lung
OVCAR-5 ovarian = tested on: OVCAR-5 ovarian
HCC-2998 colon = tested on: HCC-2998 colon
SF-539 CNS = tested on: SF-539 CNS
RPMI-8226 leukemia = tested on: RPMI-8226 leukemia
A549 NSCLC = tested on: A549 NSCLC
HCT-15 colon = tested on: HCT-15 colon
MDA-MB-435 = tested on: MDA-MB-435
DU-145 prostate = tested on: DU-145 prostate
U251 CNS = tested on: U251 CNS
T-47D breast = tested on: T-47D breast
HOP-62 NSCLC = tested on: HOP-62 NSCLC
SK-OV-3 ovarian = tested on: SK-OV-3 ovarian
MDA-N = tested on: MDA-N

CCN(CC)c1ccc(/C=N/NC(=O)Cc2ccc(Nc3ccnc(C(F)(F)F)c3)cc2)c(O)c1
GI50 (HS 578T breast): 1.95 µM
TGI (HS 578T breast): > 48.9 µM
GI50 (MCF7 breast): 0.461 µM
TGI (MCF7 breast): > 100 µM
GI50 (M14 melanoma): 0.637 µM
TGI (M14 melanoma): 5.93 µM
GI50 (A498 renal): 2.64 µM
TGI (A498 renal): > 89.5 µM
GI50 (IGROV1 ovarian): 0.472 µM
TGI (IGROV1 ovarian): > 22 µM
GI50 (HCT-116 colon): 0.46 µM
TGI (HCT-116 colon): > 100 µM
GI50 (MDA-MB-231 breast): 0.842 µM
TGI (MDA-MB-231 breast): > 100 µM
GI50 (HT29 colon): 0.638 µM
TGI (HT29 colon): > 68.2 µM
GI50 (CCRF-CEM leukemia): 0.256 µM
TGI (CCRF-CEM leukemia): > 100 µM
GI50 (SW-620 colon): 0.729 µM
TGI (SW-620 colon): > 100 µM
GI50 (TK-10 renal): 0.461 µM
TGI (TK-10 renal): > 100 µM
GI50 (HL-60(TB) leukemia): 0.301 µM
TGI (HL-60(TB) leukemia): 1.62 µM
GI50 (LOX IMVI melanoma): 0.413 µM
TGI (LOX IMVI melanoma): 3.8 µM
GI50 (NCI-H226 lung): 0.699 µM
TGI (NCI-H226 lung): > 23.5 µM
GI50 (ACHN renal): 0.399 µM
TGI (ACHN renal): > 26.9 µM
GI50 (SN12C renal): 1.15 µM
TGI (SN12C renal): > 100 µM
GI50 (SF-295 CNS): 0.713 µM
TGI (SF-295 CNS): > 60 µM
GI50 (RXF 393 renal): 1.03 µM
TGI (RXF 393 renal): 98.5 µM
GI50 (SK-MEL-2 melanoma): 4.52 µM
TGI (SK-MEL-2 melanoma): > 100 µM
GI50 (786-0 renal): 0.626 µM
TGI (786-0 renal): > 100 µM
GI50 (EKVX NSCLC): 0.98 µM
TGI (EKVX NSCLC): > 77 µM
GI50 (SR leukemia): 0.285 µM
TGI (SR leukemia): > 19.9 µM
GI50 (BT-549 breast): 0.965 µM
TGI (BT-549 breast): > 29.2 µM
GI50 (SK-MEL-28 melanoma): 1.1 µM
TGI (SK-MEL-28 melanoma): > 78 µM
GI50 (SNB-19 CNS): 0.588 µM
TGI (SNB-19 CNS): > 26.6 µM
GI50 (CAKI-1 renal): 0.413 µM
TGI (CAKI-1 renal): > 25 µM
GI50 (NCI-H460 lung): 0.351 µM
TGI (NCI-H460 lung): > 39.7 µM
GI50 (NCI-H522 lung): 1.27 µM
TGI (NCI-H522 lung): > 100 µM
GI50 (SF-268 CNS): 0.455 µM
TGI (SF-268 CNS): > 100 µM
GI50 (COLO 205 colon): 1.24 µM
TGI (COLO 205 colon): > 100 µM
GI50 (OVCAR-8 ovarian): 0.757 µM
TGI (OVCAR-8 ovarian): > 100 µM
GI50 (UO-31 renal): 0.482 µM
TGI (UO-31 renal): > 100 µM
GI50 (PC-3 prostate): 1.85 µM
TGI (PC-3 prostate): > 100 µM
GI50 (K-562 leukemia): 0.49 µM
TGI (K-562 leukemia): > 100 µM
GI50 (OVCAR-4 ovarian): 0.442 µM
TGI (OVCAR-4 ovarian): > 100 µM
GI50 (SNB-75 CNS): 2.12 µM
TGI (SNB-75 CNS): > 61.1 µM
GI50 (MOLT-4 leukemia): 0.37 µM
TGI (MOLT-4 leukemia): > 100 µM
GI50 (NCI/ADR-RES ovarian): 1.19 µM
TGI (NCI/ADR-RES ovarian): > 100 µM
GI50 (HOP-92 NSCLC): 4.06 µM
TGI (HOP-92 NSCLC): > 100 µM
GI50 (SK-MEL-5 melanoma): 0.49 µM
TGI (SK-MEL-5 melanoma): 3.86 µM
GI50 (KM12 colon): 0.826 µM
TGI (KM12 colon): > 100 µM
GI50 (OVCAR-3 ovarian): 0.473 µM
TGI (OVCAR-3 ovarian): > 100 µM
GI50 (MALME-3M melanoma): 1.18 µM
TGI (MALME-3M melanoma): > 26 µM
GI50 (UACC-62 melanoma): 0.48 µM
TGI (UACC-62 melanoma): 7.86 µM
GI50 (UACC-257 melanoma): 1.82 µM
TGI (UACC-257 melanoma): > 29.2 µM
GI50 (NCI-H23 lung): 1.34 µM
TGI (NCI-H23 lung): > 100 µM
GI50 (OVCAR-5 ovarian): 2.42 µM
TGI (OVCAR-5 ovarian): > 100 µM
GI50 (HCC-2998 colon): 1.17 µM
TGI (HCC-2998 colon): > 100 µM
GI50 (SF-539 CNS): 0.652 µM
TGI (SF-539 CNS): 7.02 µM
GI50 (RPMI-8226 leukemia): 0.521 µM
TGI (RPMI-8226 leukemia): 54.2 µM
GI50 (A549 NSCLC): 1.19 µM
TGI (A549 NSCLC): > 100 µM
GI50 (HCT-15 colon): 0.373 µM
TGI (HCT-15 colon): > 100 µM
GI50 (MDA-MB-435): 1.29 µM
TGI (MDA-MB-435): > 100 µM
GI50 (DU-145 prostate): 0.828 µM
TGI (DU-145 prostate): > 100 µM
GI50 (U251 CNS): 0.586 µM
TGI (U251 CNS): > 100 µM
GI50 (T-47D breast): 0.517 µM
TGI (T-47D breast): > 25.1 µM
GI50 (HOP-62 NSCLC): 0.566 µM
TGI (HOP-62 NSCLC): > 100 µM
GI50 (SK-OV-3 ovarian): 0.359 µM
TGI (SK-OV-3 ovarian): > 100 µM

O=CN1CCN(c2ccc3ccc(=O)[nH]c3n2)CC1
TGI (HS 578T breast): > 100 µM
TGI (MCF7 breast): > 100 µM
TGI (M14 melanoma): > 100 µM
TGI (IGROV1 ovarian): > 100 µM
TGI (HCT-116 colon): > 100 µM
TGI (MDA-MB-231 breast): > 100 µM
TGI (HT29 colon): > 100 µM
TGI (CCRF-CEM leukemia): > 100 µM
TGI (SW-620 colon): > 100 µM
TGI (TK-10 renal): > 100 µM
TGI (HL-60(TB) leukemia): > 100 µM
TGI (LOX IMVI melanoma): > 100 µM
TGI (NCI-H226 lung): > 100 µM
TGI (ACHN renal): > 100 µM
TGI (SN12C renal): > 100 µM
TGI (SF-295 CNS): > 100 µM
TGI (SK-MEL-2 melanoma): > 100 µM
TGI (786-0 renal): > 100 µM
TGI (EKVX NSCLC): > 100 µM
TGI (SR leukemia): > 100 µM
TGI (BT-549 breast): > 100 µM
TGI (SK-MEL-28 melanoma): > 100 µM
TGI (SNB-19 CNS): > 100 µM
TGI (CAKI-1 renal): > 100 µM
TGI (NCI-H460 lung): > 100 µM
TGI (NCI-H522 lung): > 100 µM
TGI (SF-268 CNS): > 100 µM
TGI (COLO 205 colon): > 100 µM
TGI (OVCAR-8 ovarian): > 100 µM
TGI (UO-31 renal): > 100 µM
TGI (PC-3 prostate): > 100 µM
TGI (K-562 leukemia): > 100 µM
TGI (MDA-N): > 100 µM
TGI (OVCAR-4 ovarian): > 100 µM
TGI (SNB-75 CNS): > 100 µM
TGI (MOLT-4 leukemia): > 100 µM
TGI (NCI/ADR-RES ovarian): > 100 µM
TGI (HOP-92 NSCLC): > 100 µM
TGI (KM12 colon): > 100 µM
TGI (OVCAR-3 ovarian): > 100 µM
TGI (MALME-3M melanoma): > 100 µM
TGI (UACC-62 melanoma): > 100 µM
TGI (UACC-257 melanoma): > 100 µM
TGI (NCI-H23 lung): > 100 µM
TGI (OVCAR-5 ovarian): > 100 µM
TGI (HCC-2998 colon): > 100 µM
TGI (SF-539 CNS): > 100 µM
TGI (RPMI-8226 leukemia): > 100 µM
TGI (A549 NSCLC): > 100 µM
TGI (HCT-15 colon): > 100 µM
TGI (MDA-MB-435): > 100 µM
TGI (DU-145 prostate): > 100 µM
TGI (U251 CNS): > 100 µM
TGI (HOP-62 NSCLC): > 100 µM
TGI (SK-OV-3 ovarian): > 100 µM
